Reference: patent US11414429B2, “Compound or pharmaceutically acceptable salt thereof” (RIKEN, priority 2016, dated 2022)

Legend:
tankyrase 1 (TNKS 1) = molecular target: T1, tankyrase 1 (TNKS 1) (Homo sapiens, UniProt O95271); test: Tankyrase inhibitory activity test (ELISA, self-polyADP ribosylation), tankyrase 1; assay type: biochemical; conditions: tankyrase 1, ELISA, self-polyADP ribosylation; read-out: TNKS1 inhibitory activity (IC50 class)
T1 construct: 1,024-1,327aa; made in house; host or cells: cell-free protein synthesis system
Method: (§1) (Test Example 1) Tankyrase Inhibitory Activity Test
(§2) For each of the compounds obtained in Examples (the test target compounds), the tankyrase inhibitory activity (an inhibitory activity against tankyrase 1 (TNKS 1) and an inhibitory activity against tankyrase 2 (TNKS 2)) was evaluated by measuring the enzymatic activity of tankyrase 1 and the enzymatic activity of tankyrase 2 by the ELISA technique using self-polyADP ribosylation as an index. First, Flag-tag fusion tankyrase 1 (1,024-1,327aa, SAM+PARP) and tankyrase 2 (613-1, 116aa, ANK5+SAM+PARP) were each synthesized by a cell-free protein synthesis system and diluted with a Tris buffer (50 mM Tris-HCl (pH 8.0), 150 mM NaCl, 10% glycerol). Then, 50 μL of the diluted tankyrase 1 or tankyrase 2 was added to a plate on which the anti-FLAGM 2 monoclonal antibody was immobilized (Anti-FLAG high sensitivity M2 coated plate) (SIGMA Corporation), and was allowed to stand at 4° C. overnight. Thereafter, the plate was washed four times with a PBS buffer containing 0.1% Triton X-100 (PBST buffer).
(§3) Subsequently, the test target compound diluted with an assay buffer (50 mM Tris-HCl (pH 8.0), 4 mM MgCl2, 0.2 mM DTT) (using DMSO as a control) was added to each well of the plate and was allowed to stand at room temperature for 10 minutes. Thereafter, a biotin-labeled NAD solution (225 μM NAD, 25 μM 6-Biotin-17-NAD (Trevigen Inc.)) was added as a donor substrate and mixed with the resultant test target compound, and the reaction was allowed to proceed at 30° C. for 45 minutes. Instead of the biotin-labeled NAD solution, distilled water was added to blank wells. After the reaction, the plate was washed four times with the PBST buffer. Thereafter, HRP (horseradish peroxidase)-labeled streptavidin (Trevigen Inc.) diluted 1,000-fold with the PBS buffer was added to each well, and the reaction was allowed to proceed at room temperature for 20 minutes. After the plate was washed four times with the PBST buffer, a chemiluminescent substrate solution TACS-Sapphire (Trevigen Inc.) was added to each well and the reaction was allowed to proceed at room temperature for 20 minutes. Then, the chemiluminescence intensity was measured using a chemiluminescence measuring apparatus.
(§4) The residual enzyme activity in the presence of the test target compound was determined in accordance with the following formula. Based on the residual enzyme activity at multiple concentrations of the test target compound, an enzyme inhibition activity was calculated as a 50% inhibitory concentration (IC50 value) using data analysis software named Origin (LightStone Corp.).

tankyrase 2 (TNKS 2) = molecular target: T2, tankyrase 2 (TNKS 2) (Homo sapiens, UniProt Q9H2K2); test: Tankyrase inhibitory activity test (ELISA, self-polyADP ribosylation), tankyrase 2; assay type: biochemical; conditions: tankyrase 2, ELISA, self-polyADP ribosylation; read-out: TNKS2 inhibitory activity (IC50 class)
T2 construct: 613-1, 116aa; made in house; host or cells: cell-free protein synthesis system
Method: as §1, §2, §3, §4

[1] = test system: human colorectal cancer cell line, COLO-320DM; test: Cell proliferation inhibitory activity test (Celltiter-Glo Luminescent Cell Viability Assay); assay type: cell-based; conditions: COLO-320DM cells, 96 hours, read-out: COLO-320 DM cell proliferation inhibitory activity (GI50 class)
Method: (Test Example 2) Cell Proliferation Inhibitory Activity Test
The cell proliferation inhibitory activity of the compound obtained in each of Examples against human colorectal cancer cell line, COLO-320DM was evaluated by Celltiter-Glo Luminescent Cell Viability Assay (Promega Corporation, G7573). The COLO-320 DM cells were cultured in a RPMI-1640 medium (Wako Pure Chemical Industries, Ltd., 189-02025) containing 10% fetal bovine serum and 2 mM of glutamine. The cultured cells were washed with PBS and then detached with trypsin/EDTA to prepare a cell solution containing 3×10^4 cells/mL.
Next, the cell solution was seeded in a 96 well microplate (Thermo/Nunc, 136101) in an amount of 70 μL/well and was cultured overnight under conditions at 37° C. with 5% CO2. On the next day, 10 μL/well of a solution in which the test target compound (DMSO solution) was diluted with the cell culture medium (a final DMSO concentration of 1%) was added and the reaction was allowed to proceed under conditions at 37° C. with 5% CO2 for 96 hours (a 1% DMSO solution was used as a control). Subsequently, 80 μL/well of Celltiter-Glo Luminescent Cell Viability Assay reagent (Promega Corporation, G7573) was added, followed by agitation for 2 minutes with a shaker under shielding with aluminum foil. Thereafter, the resultant solution was allowed to stand for reaction at room temperature for 10 minutes.
After that, the luminescent signal was measured with a luminometer (Biotech, Synergy). The cell proliferation inhibitory activity was evaluated by obtaining a percentage of a cell proliferation volume of each compound-added group with respect to a cell proliferation volume (100%) of a control group in which no test target component solution was added, and calculating a value of compound concentration (GI50) required to reduce the remaining cell volume to 50% of the remaining cell volume of the control. […] The results are shown in Tables 120 to 123 together with the results of the tankyrase inhibition activity test.

T2 sequence (Q9H2K2 613-1166): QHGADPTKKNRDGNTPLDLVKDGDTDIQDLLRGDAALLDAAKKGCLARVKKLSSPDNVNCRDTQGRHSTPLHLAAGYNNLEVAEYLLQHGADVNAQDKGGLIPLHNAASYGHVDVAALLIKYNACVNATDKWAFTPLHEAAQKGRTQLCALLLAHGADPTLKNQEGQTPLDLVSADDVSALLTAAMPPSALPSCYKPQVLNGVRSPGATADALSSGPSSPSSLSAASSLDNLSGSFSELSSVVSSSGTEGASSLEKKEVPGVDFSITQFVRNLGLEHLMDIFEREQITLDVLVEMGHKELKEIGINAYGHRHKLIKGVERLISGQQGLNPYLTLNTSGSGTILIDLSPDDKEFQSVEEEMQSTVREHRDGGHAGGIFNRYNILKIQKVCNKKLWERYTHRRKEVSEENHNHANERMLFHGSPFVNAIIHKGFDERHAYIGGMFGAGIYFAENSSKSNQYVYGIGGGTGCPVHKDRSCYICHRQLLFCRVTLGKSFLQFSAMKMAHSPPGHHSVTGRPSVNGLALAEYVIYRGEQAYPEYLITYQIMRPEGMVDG
T1 sequence (O95271 1024-1327): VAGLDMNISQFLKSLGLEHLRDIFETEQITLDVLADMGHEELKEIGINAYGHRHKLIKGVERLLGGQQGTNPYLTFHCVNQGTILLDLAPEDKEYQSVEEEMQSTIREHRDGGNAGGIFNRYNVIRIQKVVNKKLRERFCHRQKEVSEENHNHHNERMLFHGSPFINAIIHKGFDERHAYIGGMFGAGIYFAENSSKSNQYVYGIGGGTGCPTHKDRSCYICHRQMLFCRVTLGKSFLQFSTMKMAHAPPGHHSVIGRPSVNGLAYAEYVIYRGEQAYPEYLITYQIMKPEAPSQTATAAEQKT

SMILES	IC50 (tankyrase 1 (TNKS 1))	IC50 (tankyrase 2 (TNKS 2))	GI50 [1]
O=c1[nH]c(N2CCC3(CC2)CN(Cc2ccccn2)c2cc(F)cc(F)c23)nc2c1CCCC2 [Example 253, 2-[4,6-difluoro-1-(pyridin-2-yl)methyl-spiro [indoline-3,4′-piperidin]-1′-yl]-5,6,7,8-tetrahydro-quinazolin-4(3H)-one]	< 20 nM	< 20 nM	100 to 600 nM
O=c1[nH]c(N2CCC3(CC2)CN(Cc2ccncc2)c2cc(F)cc(F)c23)nc2c1CCCC2 [Example 254, 2-[4,6-difluoro-1-(pyridin-4-yl)methyl-spiro[indoline-3,4′-piperidin]-1′-yl]-5,6,7,8-tetrahydro-quinazolin-4(3H)-one]	< 20 nM	< 20 nM	100 to 600 nM
Cc1cccc2c(=O)[nH]c(N3CCC4(CC3)CN(CCO)c3cc(F)cc(F)c34)nc12 [Example 258, 2-[4,6-di-fluoro-1-(2-hydroxy-ethyl)spiro-[indoline-3,4′-piperidin]-1′-yl]-8-methyl-quinazolin-4(3H)-one]	< 20 nM	< 20 nM	600 to 1000 nM
O=c1[nH]c(N2CCC3(CC2)CN(CCO)c2cc(F)cc(F)c23)nc2c(CO)cccc12 [Example 259, 2-[4,6-di-fluoro-1-(2-hydroxy-ethyl)spiro-[indoline-3,4′-piperidin]-1′-yl]-8-(hydroxy-methyl)-quinazolin-4(3H)-one]	< 20 nM	< 20 nM	600 to 1000 nM
O=C1N(Cc2cccnc2)c2cc(F)cc(F)c2C12CCN(c1nc3c(CO)cccc3c(=O)[nH]1)CC2 [Example 273, 4,6-difluoro-1′-[8-(hydroxymethyl)-4-oxo-3,4-dihydro-quinazolin-2-yl]-1-(pyridin-3-ylmethyl)-spiro[indoline-3,4′-piperidin]-2-one]	< 20 nM	< 20 nM	600 to 1000 nM
O=c1[nH]c(N2CCC3(CC2)CN(Cc2ncccn2)c2cc(F)cc(F)c23)nc2c1CCCC2 [Example 316, 2-[4,6-difluoro-1-(pyrimidin-2-yl-methyl)spiro-[indoline-3,4′-piperidine]-1′-yl]-5,6,7,8-tetrahydro-quinazoline-4(3H)-one]	< 20 nM	< 20 nM	100 to 600 nM
O=C1N(Cc2cccnc2)c2cc(F)cc(F)c2C12CCN(c1nc3c(c(=O)[nH]1)CCCC3)CC2 [Example 333, 4,6-difluoro-1′-(4-oxo-3,4,5,6,7,8-hexahydro-quinazolin-2-yl)-1-(pyridin-3-ylmethyl) spiro[indoline-3,4′-piperidin]-2-one]	< 20 nM	< 20 nM	100 to 600 nM
CN1CC2(CCN(c3nc4c(c(=O)[nH]3)CCCN4C)CC2)c2c(F)cc(F)cc21 [Example 337, 2-(4,6-difluoro-1-methylspiro [indoline-3,4′-piperidin]-1′-yl)-8-methyl-5,6,7,8-tetrahy-dropyrido [2,3-d] pyrimidin-4(3H)-one]	< 20 nM	< 20 nM	100 to 600 nM

Second part, the molecule after the results:

IC50 (tankyrase 1 (TNKS 1))	IC50 (tankyrase 2 (TNKS 2))	GI50 [1]	SMILES
< 20 nM	< 20 nM	100 to 600 nM	CN1CCCc2c1nc(N1CCC3(CC1)C(=O)N(C)c1ccccc13)[nH]c2=O [Example 292, 1-methyl-1′-(8-methyl-4-oxo-3,4,5,6,7,8-hexa-hydropyrido-[2,3-d]-pyrimidin-2-yl)-spiro[indoline-3,4′-piperidine]-2-one]
< 20 nM	< 20 nM	600 to 1000 nM	CN1C(=O)C2(CCN(c3nc4c(c(=O)[nH]3)CCCC4)CC2)c2c(Cl)cc(-c3nc(C(=O)N4CCOCC4)co3)cc21 [Example 323, 4-chloro-1-methyl-6-[4-(morpholine-4-carbonyl)oxazole-2-yl]-1′-(4-oxo-3,4,5,6,7,8-hexa-hydroquinazoline-2-yl)spiro[indoline-3,4′-piperidin]-2-one]
20 to 200 nM	20 to 200 nM	600 to 1000 nM	CN1CCCc2c1nc(N1CCC3(CC1)C(=O)N(C)c1cc(-c4nc(C(=O)N5CCOCC5)co4)cc(Cl)c13)[nH]c2=O [Example 326, 4-chloro-6-[4-(morpholine-4-carbonyl)-oxazol-2-yl]-1-methyl-1′-(8-methyl-4-oxo-3,4,5,6,7,8-hexahydro-pyrido[2,3-d]-pyrimidin-2-yl)spino-[indoline-3,4′-piperidin]-2-one]
< 20 nM	< 20 nM	100 to 600 nM	CN1CCCc2c1nc(N1CCC3(CC1)C(=O)N(C)c1c(C#N)ccc(Cl)c13)[nH]c2=O [Example 327, 4-chloro-1-methyl-1′-(8-methyl-4-oxo-3,4,5,6,7,8-hexahydro-pyrido[2,3-d]-pyrimidin-2-yl)-2-oxo-spiro[indoline-3,4′-piperidine]-7-carbonitrile]
20 to 200 nM	< 20 nM	100 to 600 nM	CCOC(=O)c1coc(-c2cc(Cl)c3c(c2)N(C)C(=O)C32CCN(c3nc4c(c(=O)[nH]3)CCCN4C)CC2)n1 [Example 328, 4-chloro-6-(4-ethoxy-carbonyl-oxazole-2-yl)-1-methyl-1′-(8-methyl-4-oxo-3,4,5,6,7,8-hexahydro-pyrido[2,3-d]-pyrimidin-2-yl)spiro-[indoline-3,4′-piperidin]-2-one]
20 to 200 nM	20 to 200 nM	600 to 1000 nM	CN1CCCc2c1nc(N1CCC3(CC1)C(=O)N(C)c1cc(-c4nc(CN5CCCC5)co4)cc(Cl)c13)[nH]c2=O [Example 329, 4-chloro-1-methyl-1′-(8-methyl-4-oxo-3,4,5,6,7,8-hexahydro-pyrido[2,3-d]-pyrimidin-2-yl)-6-[4-(pyrroidin-1yl-methyl)oxazol-2-yl]-spiro-[indoline-3,4′-piperidin]-2-one]
< 20 nM	< 20 nM	600 to 1000 nM	CN1CCCc2c1nc(N1CCC3(CC1)C(=O)N(C)c1c(C(N)=O)ccc(Cl)c13)[nH]c2=O [Example 330, 4-chloro-1-methyl-1′-(8-methyl-4-oxo-3,4,5,6,7,8-hexahydro-pyrido[2,3-d]-pyrimidin-2-yl)-2-oxospiro-[indoline-3,4′-piperidine]-7-carboxamide]
< 20 nM	< 20 nM	600 to 1000 nM	CN1CCCc2c1nc(N1CCC3(CC1)C(=O)N(C)c1cc(-c4nc(C(=O)O)co4)cc(Cl)c13)[nH]c2=O [Example 331, 2-{4-chloro-1-methyl-1′-(8-methyl-4-oxo-3,4,5,6,7,8-hexahydro-pyrido[2,3-d]pyrimidin-2-yl)-2-oxospiro [indoline-3,4′-piperidin]-6-yl]oxazole-4-carboxylic acid]
< 20 nM	< 20 nM	600 to 1000 nM	CN1C(=O)C2(CCN(c3nc4c(c(=O)[nH]3)CCCC4)CC2)c2c(Cl)cc(OCCCN3CCOCC3)cc21 [Example 334]
